Measured values from US20050142104A1, “Methods of using and compositions comprising PDE4 modulators for the treatment and management of asbestos-related diseases and disorders” (priority 2003, published 2005).

Tests used:
[1] = Clinical studies in unresectable or relapsed mesothelioma patients; type: in vivo, human; conditions: 400 mg as a continuous oral daily dose; mesothelioma patients not responding to conventional therapy
Description: Clinical trials with the administration of a PDE4 modulator in an amount of from about 1 mg to about 1,000 mg, from about 1 mg to about 500 mg, or from about 1 mg to about 250 mg per day are conducted in patients with asbestosis, malignant mesothelioma, or malignant pleural effusion mesothelioma syndrome. In a specific embodiment, patients receive about 1 mg to about 1000 mg/day of 3-(3,4-dimethoxy-phenyl)-3-(1-oxo-1,3-dihydro-isoindol-2-yl)-propionamide alone or in combination with vinorelbine. Patients who experience clinical benefit are permitted to continue on treatment.
Other clinical studies are performed using 3-(3,4-dimethoxy-phenyl)-3-(1-oxo-1,3-dihydro-isoindol-2-yl)-propionamide in unresectable or relapsed mesothelioma patients that have not responded to conventional therapy. In one embodiment, 3-(3,4-dimethoxy-phenyl)-3-(1-oxo-1,3-dihydro-isoindol-2-yl)-propionamide is administered in an amount of about 1 mg to about 1,000 mg/day to the patients. Treatment with 400 mg as a continuous oral daily dose is well-tolerated.

[2] = test system: TNF-α production; assay: In vitro studies: inhibition of TNF-α production following LPS-stimulation of human PBMC and human whole blood; type: cell-based; conditions: comparator thalidomide
Description: In a specific embodiment, the pharmacological properties of 3-(3,4-dimethoxy-phenyl)-3-(1-oxo-1,3-dihydro-isoindol-2-yl)-propionamide are characterized in in vitro studies. Studies examine the effects of the compound on the production of various cytokines. Inhibition of TNF-α production following LPS-stimulation of human PBMC and human whole blood by the compound is investigated in vitro. The IC50's of the compound for inhibiting production of TNF-α are measured. […] The pharmacological effects of 3-(3,4-dimethoxy-phenyl)-3-(1-oxo-1,3-dihydro-isoindol-2-yl)-propionamide may derive from its action as an inhibitor of the generation of inflammatory cytokines.

COc1ccc(C(CC(N)=O)N2Cc3ccccc3C2=O)cc1OC (centres unmarked) [3-(3,4-Dimethoxy-phenyl)-3-(1-oxo-1,3-dihydro-isoindol-2-yl)-propionamide]
tolerability [1]: well-tolerated
pharmacological activity profile, potency relative to thalidomide [2]: five to fifty times more potent than thalidomide
